Assay results taken from PubChem BioAssay (NCI).
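Step 1: Grow cells in 96-well plates. Step 2: Expose to compound for 48 hours at 5 concentrations. Step 3: Interpolate endpoints linearly; if unreached, use highest concentration. GI50 marks 50% less growth. At the TGI there is no net growth.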

Key:
Assay in all cases: inhibition of tumour cell growth, NCI panel, 48 h
SW-620 colon = tested on: SW-620 colon
HT29 colon = tested on: HT29 colon
OVCAR-8 ovarian = tested on: OVCAR-8 ovarian
RXF 393 renal = tested on: RXF 393 renal
OVCAR-4 ovarian = tested on: OVCAR-4 ovarian
SF-295 CNS = tested on: SF-295 CNS
OVCAR-3 ovarian = tested on: OVCAR-3 ovarian
MALME-3M melanoma = tested on: MALME-3M melanoma
LOX IMVI melanoma = tested on: LOX IMVI melanoma
PC-3 prostate = tested on: PC-3 prostate
MCF7 breast = tested on: MCF7 breast
SK-MEL-28 melanoma = tested on: SK-MEL-28 melanoma
EKVX NSCLC = tested on: EKVX NSCLC
HOP-92 NSCLC = tested on: HOP-92 NSCLC
SK-MEL-5 melanoma = tested on: SK-MEL-5 melanoma
TK-10 renal = tested on: TK-10 renal
SF-268 CNS = tested on: SF-268 CNS
ACHN renal = tested on: ACHN renal
786-0 renal = tested on: 786-0 renal
K-562 leukemia = tested on: K-562 leukemia
MDA-MB-435 = tested on: MDA-MB-435
U251 CNS = tested on: U251 CNS
A498 renal = tested on: A498 renal
IGROV1 ovarian = tested on: IGROV1 ovarian
SNB-19 CNS = tested on: SNB-19 CNS
MDA-MB-231 breast = tested on: MDA-MB-231 breast
DU-145 prostate = tested on: DU-145 prostate
SK-OV-3 ovarian = tested on: SK-OV-3 ovarian
SK-MEL-2 melanoma = tested on: SK-MEL-2 melanoma
NCI-H23 lung = tested on: NCI-H23 lung
HCT-15 colon = tested on: HCT-15 colon
BT-549 breast = tested on: BT-549 breast
UACC-62 melanoma = tested on: UACC-62 melanoma
RPMI-8226 leukemia = tested on: RPMI-8226 leukemia
NCI/ADR-RES ovarian = tested on: NCI/ADR-RES ovarian
HCC-2998 colon = tested on: HCC-2998 colon
SNB-75 CNS = tested on: SNB-75 CNS
UACC-257 melanoma = tested on: UACC-257 melanoma
MOLT-4 leukemia = tested on: MOLT-4 leukemia
NCI-H226 lung = tested on: NCI-H226 lung
HCT-116 colon = tested on: HCT-116 colon
M14 melanoma = tested on: M14 melanoma
CAKI-1 renal = tested on: CAKI-1 renal
OVCAR-5 ovarian = tested on: OVCAR-5 ovarian
KM12 colon = tested on: KM12 colon
HS 578T breast = tested on: HS 578T breast
A549 NSCLC = tested on: A549 NSCLC
COLO 205 colon = tested on: COLO 205 colon
CCRF-CEM leukemia = tested on: CCRF-CEM leukemia
HOP-62 NSCLC = tested on: HOP-62 NSCLC
MDA-N = tested on: MDA-N
NCI-H460 lung = tested on: NCI-H460 lung
HL-60(TB) leukemia = tested on: HL-60(TB) leukemia
UO-31 renal = tested on: UO-31 renal
NCI-H522 lung = tested on: NCI-H522 lung
T-47D breast = tested on: T-47D breast
SF-539 CNS = tested on: SF-539 CNS
SN12C renal = tested on: SN12C renal
SR leukemia = tested on: SR leukemia

Structure (SMILES): C/C(Cc1ccc2c(c1)OCO2)=N\NC(=O)C(C)Sc1nnc(SC(C)C(=O)N/N=C(\C)Cc2ccc3c(c2)OCO3)s1 (stereo not given)
- TGI (SW-620 colon): > 100 µM
- TGI (HT29 colon): > 100 µM
- TGI (OVCAR-8 ovarian): > 100 µM
- TGI (RXF 393 renal): > 100 µM
- TGI (OVCAR-4 ovarian): > 100 µM
- TGI (SF-295 CNS): > 100 µM
- TGI (OVCAR-3 ovarian): > 100 µM
- TGI (MALME-3M melanoma): > 100 µM
- TGI (LOX IMVI melanoma): > 100 µM
- TGI (PC-3 prostate): > 100 µM
- TGI (MCF7 breast): > 100 µM
- TGI (SK-MEL-28 melanoma): > 100 µM
- TGI (EKVX NSCLC): > 100 µM
- TGI (HOP-92 NSCLC): > 100 µM
- TGI (SK-MEL-5 melanoma): > 100 µM
- TGI (TK-10 renal): > 100 µM
- TGI (SF-268 CNS): > 100 µM
- TGI (ACHN renal): > 100 µM
- TGI (786-0 renal): > 100 µM
- TGI (K-562 leukemia): > 100 µM
- TGI (MDA-MB-435): > 100 µM
- TGI (U251 CNS): > 100 µM
- TGI (A498 renal): > 100 µM
- TGI (IGROV1 ovarian): > 100 µM
- TGI (SNB-19 CNS): > 100 µM
- TGI (MDA-MB-231 breast): > 100 µM
- TGI (DU-145 prostate): > 100 µM
- TGI (SK-OV-3 ovarian): > 100 µM
- TGI (SK-MEL-2 melanoma): > 100 µM
- TGI (NCI-H23 lung): > 100 µM
- TGI (HCT-15 colon): > 100 µM
- TGI (BT-549 breast): > 100 µM
- TGI (UACC-62 melanoma): > 100 µM
- TGI (RPMI-8226 leukemia): > 100 µM
- TGI (NCI/ADR-RES ovarian): > 100 µM
- TGI (HCC-2998 colon): > 100 µM
- TGI (SNB-75 CNS): > 100 µM
- TGI (UACC-257 melanoma): > 100 µM
- TGI (MOLT-4 leukemia): > 100 µM
- TGI (NCI-H226 lung): > 100 µM
- TGI (HCT-116 colon): > 100 µM
- TGI (M14 melanoma): > 100 µM
- TGI (CAKI-1 renal): > 100 µM
- TGI (OVCAR-5 ovarian): > 100 µM
- TGI (KM12 colon): > 100 µM
- TGI (HS 578T breast): > 100 µM
- TGI (A549 NSCLC): > 100 µM
- TGI (COLO 205 colon): > 100 µM
- TGI (CCRF-CEM leukemia): > 100 µM
- TGI (HOP-62 NSCLC): > 100 µM
- TGI (MDA-N): > 100 µM
- TGI (NCI-H460 lung): > 100 µM
- TGI (HL-60(TB) leukemia): > 100 µM
- TGI (UO-31 renal): > 100 µM

Structure (SMILES): CN(C)CCNC(=O)NC[C@H]1CC[C@@H]2[C@H](O1)c1cc(C(F)(F)F)ccc1N[C@H]2c1ccccc1
- GI50 (SW-620 colon): 0.0765 µM
- TGI (SW-620 colon): 17.1 µM
- GI50 (HT29 colon): 0.303 µM
- TGI (HT29 colon): 11.2 µM
- GI50 (OVCAR-8 ovarian): 0.233 µM
- TGI (OVCAR-8 ovarian): > 100 µM
- GI50 (RXF 393 renal): 0.249 µM
- TGI (RXF 393 renal): 18.4 µM
- GI50 (OVCAR-4 ovarian): 3.03 µM
- TGI (OVCAR-4 ovarian): 22.2 µM
- GI50 (SF-295 CNS): 0.194 µM
- TGI (SF-295 CNS): 5.73 µM
- GI50 (OVCAR-3 ovarian): 0.264 µM
- TGI (OVCAR-3 ovarian): 10.3 µM
- GI50 (MALME-3M melanoma): 0.582 µM
- TGI (MALME-3M melanoma): 22.4 µM
- GI50 (LOX IMVI melanoma): 2.53 µM
- TGI (LOX IMVI melanoma): 27.3 µM
- GI50 (PC-3 prostate): 0.265 µM
- TGI (PC-3 prostate): 27 µM
- GI50 (MCF7 breast): 0.0389 µM
- TGI (MCF7 breast): 13.8 µM
- GI50 (SK-MEL-28 melanoma): 1.63 µM
- TGI (SK-MEL-28 melanoma): 21.5 µM
- GI50 (EKVX NSCLC): 11.1 µM
- TGI (EKVX NSCLC): > 100 µM
- GI50 (HOP-92 NSCLC): 1.25 µM
- TGI (HOP-92 NSCLC): 29 µM
- GI50 (SK-MEL-5 melanoma): 0.0999 µM
- TGI (SK-MEL-5 melanoma): 15.8 µM
- GI50 (TK-10 renal): 9.78 µM
- TGI (TK-10 renal): 27.5 µM
- GI50 (SF-268 CNS): 0.589 µM
- TGI (SF-268 CNS): 39.6 µM
- GI50 (ACHN renal): 10.5 µM
- TGI (ACHN renal): 23 µM
- GI50 (786-0 renal): 5.42 µM
- TGI (786-0 renal): 36.3 µM
- GI50 (K-562 leukemia): 0.0757 µM
- TGI (K-562 leukemia): 14.8 µM
- GI50 (MDA-MB-435): 0.0278 µM
- TGI (MDA-MB-435): 0.0718 µM
- GI50 (U251 CNS): 0.0537 µM
- TGI (U251 CNS): 1.69 µM
- GI50 (A498 renal): 0.196 µM
- TGI (A498 renal): 10.5 µM
- GI50 (IGROV1 ovarian): 0.578 µM
- TGI (IGROV1 ovarian): 40.7 µM
- GI50 (SNB-19 CNS): 0.624 µM
- TGI (SNB-19 CNS): > 100 µM
- GI50 (MDA-MB-231 breast): 0.24 µM
- TGI (MDA-MB-231 breast): 3.6 µM
- GI50 (DU-145 prostate): 0.253 µM
- TGI (DU-145 prostate): 0.792 µM
- GI50 (SK-OV-3 ovarian): 0.0425 µM
- TGI (SK-OV-3 ovarian): 10 µM
- GI50 (SK-MEL-2 melanoma): 0.15 µM
- TGI (SK-MEL-2 melanoma): 2.32 µM
- GI50 (NCI-H23 lung): 0.495 µM
- TGI (NCI-H23 lung): > 48.3 µM
- GI50 (HCT-15 colon): 1.02 µM
- TGI (HCT-15 colon): 16.5 µM
- GI50 (BT-549 breast): 0.389 µM
- TGI (BT-549 breast): 14.7 µM
- GI50 (UACC-62 melanoma): 0.276 µM
- TGI (UACC-62 melanoma): 15.9 µM
- GI50 (RPMI-8226 leukemia): 0.163 µM
- TGI (RPMI-8226 leukemia): 8.48 µM
- GI50 (NCI/ADR-RES ovarian): 5.99 µM
- TGI (NCI/ADR-RES ovarian): > 100 µM
- GI50 (HCC-2998 colon): 0.275 µM
- TGI (HCC-2998 colon): 18.6 µM
- GI50 (NCI-H522 lung): 0.0506 µM
- TGI (NCI-H522 lung): 0.303 µM
- GI50 (SNB-75 CNS): 0.32 µM
- TGI (SNB-75 CNS): 23.4 µM
- GI50 (UACC-257 melanoma): 10.5 µM
- TGI (UACC-257 melanoma): 23.9 µM
- GI50 (MOLT-4 leukemia): 0.373 µM
- TGI (MOLT-4 leukemia): 19.6 µM
- GI50 (NCI-H226 lung): 15.1 µM
- TGI (NCI-H226 lung): 43.4 µM
- GI50 (HCT-116 colon): 0.0414 µM
- TGI (HCT-116 colon): 14.7 µM
- GI50 (M14 melanoma): 0.041 µM
- TGI (M14 melanoma): 0.684 µM
- GI50 (CAKI-1 renal): 4.74 µM
- TGI (CAKI-1 renal): > 68.2 µM
- GI50 (OVCAR-5 ovarian): 0.609 µM
- TGI (OVCAR-5 ovarian): 22.6 µM
- GI50 (KM12 colon): 0.296 µM
- TGI (KM12 colon): 14.6 µM
- GI50 (HS 578T breast): 0.173 µM
- TGI (HS 578T breast): 18.1 µM
- GI50 (A549 NSCLC): 0.175 µM
- TGI (A549 NSCLC): 17.4 µM
- GI50 (T-47D breast): 0.371 µM
- TGI (T-47D breast): 17.8 µM
- GI50 (COLO 205 colon): 0.0476 µM
- TGI (COLO 205 colon): 0.236 µM
- GI50 (SF-539 CNS): 0.187 µM
- TGI (SF-539 CNS): 8.31 µM
- GI50 (CCRF-CEM leukemia): 0.137 µM
- TGI (CCRF-CEM leukemia): 3.85 µM
- GI50 (HOP-62 NSCLC): 1.71 µM
- TGI (HOP-62 NSCLC): 24.1 µM
- GI50 (NCI-H460 lung): 0.14 µM
- TGI (NCI-H460 lung): 11.8 µM
- GI50 (HL-60(TB) leukemia): 0.154 µM
- TGI (HL-60(TB) leukemia): 0.672 µM
- GI50 (SN12C renal): 0.455 µM
- TGI (SN12C renal): > 51.7 µM
- GI50 (UO-31 renal): 6.12 µM
- TGI (UO-31 renal): 34.6 µM
- GI50 (SR leukemia): 0.0411 µM
- TGI (SR leukemia): 15.1 µM
